From patent US20250041291A1, “COMPOSITIONS AND METHODS FOR TREATING CANCER” (Emmaus Life Sciences, Inc, priority 2021, published 2025)

Experiments:
Assay type in all cases: cell-based
[1] = system: MOLM-13 cells (adult acute myeloid leukemia) expressing the FLT3-ITD mutation; assay: cell number (proliferation) of MOLM-13 cells expressing FLT3-ITD
Procedure: (§1) In this example, MOLM-13 cells (adult acute myeloid leukemia) expressing the FLT3-ITD mutation were used to test Compound A to decrease their cell proliferation and increase their apoptosis level. Midostaurin (mido), an inhibitor of FLT3, was used as a positive control.
(§2) MOLM-13 cells were cultured in RPMI1640, red phenol free, in presence of 2, 10 and 25% of fetal bovine serum (FBS). 25% FBS simulates the level of serum present in the blood. Adipose stromal cells (ASC) and human fibroblast primary cells were used as reference controls. Compound A, at various concentrations (0.05 to 100 μM), was added to the cells and incubated for 24 h, with or without the co-treatment with olaparib (a PARP inhibitor, Ola). Olaparib or ibrutinib (a BTK inhibitor) alone was also tested with these cells.

[2] = system: human adipose stromal cells (ASC); assay: caspase 3/7 activity (apoptosis) in human adipose stromal cells; settings: 25% FBS, 24 h; for activity of caspase 3 or 7 / induction of apoptosis in ASC: all tested concentrations (up to 100 μM)
Procedure: as §2

[3] = system: MOLM-13 cells (adult acute myeloid leukemia) expressing the FLT3-ITD mutation; assay: caspase 3/7 activity (apoptosis) in MOLM-13 cells expressing FLT3-ITD
Procedure: as §1, §2

[4] = system: MWCL-1 cells (adult Waldenström macroglobulinemia cells) expressing the Myd88 L265P mutation; assay: caspase 3/7 activity (apoptosis) in MWCL-1 cells expressing Myd88 L265P
Procedure: (§3) In this study, MWCL-1 cells (adult Waldenström macroglobulinemia cells) expressing the Myd88 L265P mutation were used to test different drugs for their effects on cell proliferation and apoptosis. Midostaurin (an inhibitor of FLT3, mido) was used as reference control.
(§4) MWCL-1 cells were cultured in RPMI1640, in presence of 2, 10 and 25% of fetal bovine serum (FBS). The number of MWCL-1 cells decreased only at higher Compound A concentration (50 and 100 μM), during a 24 h treatment, at 2, 10 and 25% FBS (FIGS. 6A, 7A and 8A). Also, the levels of caspase 3/7 activity in the cells were elevated only at the higher concentrations (50 and 100 μM, FIGS. 6B, 7B and 8B), which is consistent with the decreased cell growth.

[5] = system: human adipose stromal cells (ASC); assay: cell number (proliferation) of human adipose stromal cells after 24 h treatment; settings: 25% FBS; for ASC growth / ASC number as compared to vehicle control: at 100 μM
Procedure: as §2

[6] = system: human fibroblast primary cells; assay: caspase 3/7 activity (apoptosis) in human fibroblast primary cells; settings: 25% FBS, 24 h
Procedure: as §2

[7] = system: human fibroblast primary cells; assay: cell growth (proliferation) of human fibroblast primary cells; settings: at 100 μM, but not at lower concentrations; 25% FBS; 24 h
Procedure: as §2

[8] = system: MWCL-1 cells (adult Waldenström macroglobulinemia cells) expressing the Myd88 L265P mutation; assay: cell number (proliferation) of MWCL-1 cells expressing Myd88 L265P
Procedure: as §3, §4

[9] = alone, at 10 μM, 2, 10 or 25% FBS
[10] = 1 to 100 μM, dose-dependent, 2% or 10% FBS, 24 h

Compound: 4-[(3-[(4-cyclopropylcarbonyl)piperazin-1-yl]carbonyl)-4-fluorophenyl]methyl(2H)phthalazin-1-one [olaparib, reference compound]
- numbers of MOLM-13 cells [1, 9]: did not decrease
- activity of caspase 3 or 7 / induction of apoptosis in ASC [2]: did not induce apoptosis
- apoptotic levels of MOLM-13 cells [3, 9]: increased the apoptotic levels
- caspase 3/7 activity in MWCL-1 cells ([4]; at 50, 100 μM, 25% FBS): increased the caspase 3/7 activity
- ASC growth / ASC number as compared to vehicle control [5]: inhibited ASC growth

Compound: CN1CCN(C(=O)CCCc2cn(-c3ccccc3)c(NC(=O)c3cccc(-c4cnn(C)c4)c3)n2)CC1 [Compound A, 3-(1-methyl-1H-pyrazol-4-yl)-N-(4-(4-(4-methylpiperazin-1-yl)-4-oxobutyl)-1-phenyl-1H-imidazol-2-yl)benzamide]
- numbers of MOLM-13 cells [1, 10]: decreased
- response of MOLM-13 cells to anti-cancer effects (proliferation and apoptosis) ([1]; 25% FBS, 24 h): responded to the anti-cancer effects
- efficiency compared with the other compound (cell numbers and caspase 3/7 activity, MOLM-13) ([1]; at higher doses): more efficient at higher doses than midostaurin
- apoptosis of the fibroblasts ([6]; tested concentrations): No apoptosis
- activity of caspase 3 or 7 / induction of apoptosis in ASC [2]: did not change the activity of caspase 3 or 7
- level of caspase 3/7 activity in MOLM-13 cells [3, 10]: elevated
- levels of caspase 3/7 activity in MWCL-1 cells ([4]; only at 50 and 100 μM, 24 h, 2, 10 and 25% FBS): elevated
- cell growth of human fibroblast primary cells [7]: slower cell growth
- cell number increase of human ASC as compared to vehicle control ([5]; at 50 and 100 μM but not at lower concentrations): slower cell number increase
- efficiency compared with midostaurin (MWCL-1 cell number and caspase 3/7 activity) ([8]; both at 100 μM, 25% FBS): more efficient than midostaurin
- number of MWCL-1 cells ([8]; only at 50 and 100 μM, 24 h treatment, 2, 10 and 25% FBS): decreased

Compound: C=CC(=O)N1CCC[C@@H](n2nc(-c3ccc(Oc4ccccc4)cc3)c3c(N)ncnc32)C1 [ibrutinib, 1-[(3R)-3-[4-Amino-3-(4-phenoxyphenyl)-1H-pyrazolo[3,4-d]pyrimidin-1-yl]piperidin-1-yl]prop-2-en-1-one]
- caspase 3/7 activities in the fibroblasts ([6]; at 100 μM): increased the caspase 3/7 activities
- apoptosis (caspase 3/7 activities) of ASC ([2]; at 100 μM, but not at lower concentrations): induced apoptosis
- ASC growth / ASC number as compared to vehicle control [5]: decrease of ASC number
